The values below come from patent publication US4122184A, “Benzimidazole insecticides” (priority 1977, dated 1978).

One assay deals with Southern Armyworm. In words: Southern Armyworm Test. Type of assay: in vivo, Prodenia eridania (Lepidoptera). The following applies: 500 ppm, 48 h. As for the experimental part:
Ten uniform Southern armyworm larvae about 1-1.5 cm. in length, grown on Henderson lima beans, are placed on excized bean leaves in petri dishes. The bean leaves are obtained and sprayed with the insecticide in the same way as are the snap bean leaves in the Mexican bean beetle test. The reference standards in this instance are leaves sprayed with 5 ml. 100 ppm DDT solution. Mortality counts are made 48 hours after spraying and again moribund larvae are counted as dead. Missing larvae which have probably been eaten are considered alive. The same rating scale is used as in the Mexican bean beetle test.

Another assay has as its system Mexican Bean Beetle. In words: Mexican Bean Beetle Test. The following applies: 48 h. It counts as in vivo, Epilachna varivestis (Coleoptera). As for the experimental part:
Cuttings of four six-day old Bountiful snap bean plants containing two leaves with approximately 5 square inches of leaf surface, are placed in water. The leaves are sprayed to wetting with about 5-10 ml. of a formulation containing a pre-determined level of the test compound. Half of the formulation is sprayed on the top surface and half on the bottom surface of the leaf using a DeVilbiss atomizer at 10 psi held at a distance of about 18 inches from the leaf. After the leaves have dried, they are cut from the stem and placed separately in petri dishes. Ten third instar, nonmolting Mexican bean beetle larvae grown on Bountiful snap beans are placed on each leaf. Controls consist of two leaves sprayed with 5 ml. of a 500 ppm malathion formulation (reference standard), two leaves sprayed with the formulation without the active ingredient and two leaves are held as untreated controls. After 48 hours, a mortality count is made and the amount of feeding noted. Moribund larvae are counted as dead.

The test system of a further assay is Oriental Cockroach. Put plainly: Oriental Roach Test. It counts as in vivo, Blatta orientalis (Orthoptera). The following applies: 500 ppm, 24 h. As for the experimental part:
A rearing pan of late instar (3-4 months old) roaches is placed in a cold room for about 1 hour. Ten nymphs are taken from the pan and placed in each cage and the caged insects are kept at 70°-80° F. for 1 hour. The test cages are then sprayed in the manner indicated above in the milkweed bug test using 5 ml. of a formulation containing a specified amount of the insecticide. The test cages are held for 72 hours during which time the cockroaches are neither fed nor watered. Controls consist of 2 unsprayed cages, two cages sprayed with the formulation alone and 2 cages with a formulation containing 1000 ppm of heptachlor. Mortality counts are made 24 hours after spraying by shaking the cages lightly. All cockroaches remaining in the bottom are counted as dead.

The test system of the next assay is Boll Weevil. Put plainly: Boll Weevil Test. Particulars: 48 h. Type of assay: in vivo, Anthonomus grandis (Coleoptera). The text has this:
The procedure is identical to that employed for the Mexican bean beetle and the Southern armyworm, except that 10 adult boll weevils are placed on cotton leaves that have been dipped into formulations of the test compounds. The same rating scale is used.

Assay [1] relates to House Fly. In words: Housefly (Contact) Test. Type of assay: in vivo, Musca domestica (Diptera). The following applies: 10 ppm, 24 h. As for the experimental part: Rearing cages containing four-day old adult house flies are chilled at 35°-40° F. for about 1 hour. One hundred flies are transferred from the rearing cage to each test cage using a small scoop. The caged flies are kept for 1-2 hours at 70°-80° F. The cages are sprayed in the same manner as described for the milkweed bug with 5 ml. of the test formulation. Two unsprayed cages are held as controls and two cages are sprayed with a 50 ppm DDT formulation as a reference standard. Mortality counts are made 24 hours after spraying. […] The same rating scale is employed as heretofore.

Assay [2] concerns House Fly. In words: Housefly (Stomach) Test. It counts as in vivo, Musca domestica (Diptera). The following applies: 100 ppm, 24 h. The method, then:
Ten chilled house flies are taken from the rearing cage and placed in a covered petri dish. Sugar cubes treated with 0.2 ml. of a formulation containing a specified level of the insecticide are placed in the petri dish one hour after the flies have been removed from the chill room. Controls consist of sugar cubes treated with 0.2 ml. of deionized water and cubes treated with 0.2 ml. of a formulation containing 500 ppm of malathion. Mortality counts are made 24 hours later. The same rating scale is used as before.

The test system of the next assay is Milkweed Bug. In words: Milkweed Bug Test. The following applies: 48 h. Type of assay: in vivo, Oncopeltis fasciatus (Hemiptera). As for the experimental part: Ten adult milkweed bugs are chilled and placed in a test cage. The cages containing the bugs are sprayed with 5 ml. of a test formulation containing a pre-determined amount of the insecticide, using a DeVilbiss atomizer at 10 psi held 33 inches from the top of the cage. After the cage has been allowed to dry, the bugs are fed and watered for 48 hours. A formulation containing 500 ppm of malathion is used as a reference standard and two unsprayed cages are kept as controls. Mortality counts are made 48 hours after spraying. Moribund adults are considered dead. The same rating scale is employed as before.

The test system of the next assay is Two-spotted Spider Mite. Put plainly: Two-spotted Spider Mite test. It counts as in vivo, Tetranychus urticae (Acarina). Particulars: 48 h. The method, then:
The procedure in this test is the same as that in the previous aphid test, except that about 100 two-spotted spider mites from a stock colony raised on squash plants are transferred to a cut squash cotyledon. The mortality is estimated 48 hours after spraying. The same rating scale is used.

On to `O=[N+]([O-])c1cc(C(F)F)cc2nc(C(F)(F)F)[nH]c12` [M, 2-trifluoromethyl-4-nitro-6-difluoromethylbenzimidazole], for which the mortality rating result with Southern Armyworm is “.5”; with Mexican Bean Beetle (50 ppm), 1.5; in the assay with Mexican Bean Beetle (100 ppm), 5.5; with Mexican Bean Beetle (500 ppm) it was 7.5; in the assay with Oriental Cockroach, 1.5; with Boll Weevil (50 ppm), 1.5. The mortality rating with Boll Weevil (250 ppm) is recorded as 8.5; in the assay with Boll Weevil (500 ppm), 8.5; in the assay on Boll Weevil (1000 ppm), 7.5; in the assay on House Fly [1], 8.5; with House Fly [2] it was 5.5; in the assay on Milkweed Bug (50 ppm), “.5”. Moreover, the figures for the mortality rating with Milkweed Bug (100 ppm), in the assay with Two-spotted Spider Mite (100 ppm) and in the assay on Two-spotted Spider Mite (250 ppm) were 3.5, 6.5 and 8.5, respectively.
